What was measured:
[1] = molecular target: T1, human V-1 receptor (Homo sapiens, UniProt P37288); experiment: In vitro recombinant vasopressin receptor binding assay (V1 Bdg), displacement of 3H-arginine vasopressin; conditions: read-out: V1 Bdg (% inh, 0.1 uM)
T1 construct: expressed in transfected cells; host or cells: HEK-293
Outline: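 Membranes from HEK-293 cells bearing cloned human V-1 receptor, incubated 1 h at room temperature with 0.65-0.75 nM 3H-arginine-8-vasopressin in pH 7.5 Tris/MgCl2/BSA buffer with protease inhibitors. Filtration onto GF/C, scintillation count. Non-specific binding with 1.25 uM arginine-8-vasopressin.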

[2] = system: vasopressin-induced hypertension in anesthetized rats; experiment: Reversal of vasopressin-induced hypertension in rats (intraduodenal dosing); type: in vivo, rat; conditions: I.D. dose 10 mg/kg, single dose into the duodenum, maximum percent reversal, monitored for 60 minutes
Method: Reversal of Vasopressin-Induced Hypertension in Rats
The anti-hypertensive activity of compounds was screened in an anesthetized model of vasopressin-induced hypertension. Male Long Evans, normotensive rats of between 350 and 450 g in body weight were anesthetized with pentobarbital (35 mg/kg, ip) and maintained throughout the procedure with an ip infusion of 10 mg/kg/hr. Arginine vasopressin was infused at 30 ng/kg/min, iv, to induce a stable hypertensive state (ca. 50 mmHg increase in mean arterial blood pressure). Compounds of interest were administered in an ascending dose fashion and the maximum decrease in mean arterial blood pressure was recorded. An ED50 was determined from the linear portion of the dose-response relationship for each animal.
This model was modified slightly to assess the bioavailability of compounds of interest. Rather than dosing the animals iv in an ascending dose fashion, a single dose per animal was administered directly into the duodenum. The anti-hypertensive effects were then monitored for 60 minutes and the maximum percent reversal was calculated.

[3] = molecular target: T2, V2 (Homo sapiens, UniProt P30518); experiment: V2 cAMP; type: cell-based
T2 sequence (P30518 whole entry): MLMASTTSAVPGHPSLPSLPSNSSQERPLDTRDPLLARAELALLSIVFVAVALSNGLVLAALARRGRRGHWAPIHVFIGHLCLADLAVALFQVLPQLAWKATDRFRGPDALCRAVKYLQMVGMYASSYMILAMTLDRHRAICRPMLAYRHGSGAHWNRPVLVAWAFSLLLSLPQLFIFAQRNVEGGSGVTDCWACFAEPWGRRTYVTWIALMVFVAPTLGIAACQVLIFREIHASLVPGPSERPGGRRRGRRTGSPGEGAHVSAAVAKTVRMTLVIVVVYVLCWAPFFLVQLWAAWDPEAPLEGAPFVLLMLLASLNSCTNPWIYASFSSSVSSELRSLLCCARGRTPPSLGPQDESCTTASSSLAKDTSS

[4] = molecular target: T2, V2; experiment: In vitro recombinant vasopressin receptor binding assay (V2 Bdg), displacement of 3H-arginine vasopressin; set-up: expressed in transfected cells; host or cells: HEK-293; conditions: membrane with cloned human V-2 receptor (HEK-293)
Outline: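 Displacement of ³H-vasopressin from membranes of HEK-293 cells bearing cloned human V-2 receptor, incubated with test compound one hour at room temperature. Bound label was collected on PEI-soaked GF/C filters, washed with cold saline/0.05% Tween 20, and counted by scintillation.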

T1 sequence (P37288 whole entry): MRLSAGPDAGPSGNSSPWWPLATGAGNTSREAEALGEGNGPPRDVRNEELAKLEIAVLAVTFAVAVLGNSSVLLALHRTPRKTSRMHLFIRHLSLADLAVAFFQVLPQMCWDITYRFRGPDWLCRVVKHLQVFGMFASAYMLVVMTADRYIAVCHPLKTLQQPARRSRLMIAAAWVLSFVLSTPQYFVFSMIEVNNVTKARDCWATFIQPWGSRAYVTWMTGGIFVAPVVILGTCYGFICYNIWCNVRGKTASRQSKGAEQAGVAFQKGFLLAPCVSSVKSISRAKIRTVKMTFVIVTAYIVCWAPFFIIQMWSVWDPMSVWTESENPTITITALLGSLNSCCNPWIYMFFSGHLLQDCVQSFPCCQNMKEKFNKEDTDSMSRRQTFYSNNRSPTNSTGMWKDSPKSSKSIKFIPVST

| SMILES | inhibition at 0.1 µM [1] [%] | BP Reduction (%) [2] [%] | IC50 [3] [nM] | IC50 [4] [nM] |
| --- | --- | --- | --- | --- |
| O=C(Nc1ccc(C(=O)N2CC3CCCCN3Cc3ccccc32)cc1)c1ccccc1-c1ccccc1 (stereo not drawn) [Compound 1, 10-[4-[[(2-Biphenyl)carbonyl]amino]benzoyl]-10,11-dihydro-5H-piperidino[2,1-c][1,4]benzodiazepine] | 31 | 67 | 210 | 9 |
| O=C(Nc1ccc(C(=O)N2C[C@H]3COCCN3Cc3ccccc32)c(Cl)c1)c1ccccc1-c1ccccc1 [Compound 4, (S)-2-Phenyl-N-[3-chloro-4-(1,3,4,12a-tetrahydro-6H-[1,4]oxazino[4,3-a][1,4]-benzodiazepin-11(12H)-yl-carbonyl)phenyl]benzamide] | – | 100 | 11 | 2 |
| O=C(Nc1ccc(C(=O)N2CC3CSCCN3Cc3ccccc32)cc1)c1ccccc1-c1ccccc1 (racemic) [Compound 3, (RS)-2-Phenyl-N-[4-(1,3,4,12a-tetrahydro-6H-[1,4]thiazino[4,3-a][1,4]-benzodiazepin-11(12H)-yl-carbonyl)phenyl]benzamide] | 42 | 100 | – | – |

— US6713475B2, “Tricyclic benzodiazepines as vasopressin receptor antagonists” (Ortho-McNeil Pharmaceutical, Inc., priority 1999, dated 2004)
